{"source": "patent US12570613B2", "about": "“Imidazoquinoline or benzoindazolone compound and intermediate for preparing same” (LMITO THERAPEUTICS INC., priority 2020, dated 2026)", "target": "NQO1 protein (Homo sapiens, UniProt P15559)", "sequence (P15559 whole entry, species assumed)": "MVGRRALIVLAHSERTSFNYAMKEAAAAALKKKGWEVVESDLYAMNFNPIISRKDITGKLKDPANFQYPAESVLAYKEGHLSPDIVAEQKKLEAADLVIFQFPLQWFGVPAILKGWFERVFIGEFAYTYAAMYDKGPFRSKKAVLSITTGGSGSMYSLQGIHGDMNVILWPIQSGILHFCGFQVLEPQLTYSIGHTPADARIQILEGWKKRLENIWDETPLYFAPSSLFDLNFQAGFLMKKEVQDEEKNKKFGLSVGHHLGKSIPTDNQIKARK", "experiment": "In vitro NQO1 enzyme activity assay (cytochrome C reduction, absorbance at 550 nm)", "type": "biochemical", "conditions": "NQO1 2 ng", "method": "In order to evaluate the activity of the synthesized compound in NQO1, the experiments were performed as follows:\nThe synthesized compound was dissolved in DMSO to make a 10 mM stock solution, which was further diluted with DMSO to 250 μM so as to prepare a working solution. For experimental groups, the working solution of the compound was added to an enzyme reaction solution in which 50 μL of 1.54 mM Cytochrome C solution was added to 900 μL of 50 mM Tris-HCl (pH7.5) containing 0.14% BSA. For negative control groups, DMSO not containing the compound of the invention was added to the enzyme reaction solution as above. For each experimental and control group, 20 μL of 100 ng/mL NQO1 protein was added, and then 10 μL of 20 mM NADH was added to bring up the total volume to 1 mL. The change of absorbance was measured at 550 nm for 10 minutes using 1 mL cuvette. The kinetics of reaction was measured by the increase of absorbance as the cytochrome C was reduced at 550 nm over 10 minutes. The activity of NQO1 was measured by the amount of cytochrome C that is being reduced (nmol cytochrome C that was reduced/min/ug NQO1 protein). • Absorption coefficient of Cytochrome C: 21.1 (μmol/mL)^−1cm^−1 • BSA: Bovine Serum Albumin • […]: Tris(hydroxymethyl)aminomethane hydrochloride (buffer solution) • Equipment=Cary 100 UV-Vis Spectrophotometer • The results are shown in Tables 1 to 8.", "data": [{"smiles": "CN(C)Cc1nn(-c2ccccc2)c2c1C(=O)C(=O)c1ccccc1-2", "note": "[Compound 17, 3-((Dimethylamino)methyl)-1-phenyl-1H-benzo[g]indazol-4,5-dione]", "values": [{"measurement": "NQO1 activity assay Cytochrome C reduced/min/μg NQO1 protein", "setting": "10 nM Compound (Table 1)", "value": "254 nmol cytochrome C that was reduced/min/ug NQO1 protein"}]}, {"smiles": "Cc1nn(-c2ccccc2)c2c1C(=O)C(=O)c1cc(F)ccc1-2", "note": "[Compound 35, 7-Fluoro-3-methyl-1-phenyl-1H-benzo[g]indazol-4,5-dione]", "values": [{"measurement": "NQO1 activity assay Cytochrome C reduced/min/μg NQO1 protein", "setting": "10 nM Compound (Table 1)", "value": "694 nmol cytochrome C that was reduced/min/ug NQO1 protein"}]}, {"smiles": "O=C1C(=O)c2ncc(-c3ccccc3)n2-c2ccccc21", "note": "[Compound 1, 1-Phenylimidazo[1,2-a]quinolin-4,5-dione]", "values": [{"measurement": "NQO1 activity assay Cytochrome C reduced/min/μg NQO1 protein", "setting": "10 nM Compound (Table 1)", "value": "658 nmol cytochrome C that was reduced/min/ug NQO1 protein"}]}, {"smiles": "Cc1nn(-c2cccnc2)c2c1C(=O)C(=O)c1ccccc1-2", "note": "[Compound 31, 3-Methyl-1-(pyridin-3-yl)-1H-benzo[g]indazol-4,5-dione]", "values": [{"measurement": "NQO1 activity assay Cytochrome C reduced/min/μg NQO1 protein", "setting": "10 nM Compound (Table 1)", "value": "900 nmol cytochrome C that was reduced/min/ug NQO1 protein"}]}, {"smiles": "Cc1nn(Cc2ccccc2)c2c1C(=O)C(=O)c1ccccc1-2", "note": "[Compound 63, 1-Benzyl-3-methyl-1H-benzo[g]indazol-4,5-dione]", "values": [{"measurement": "NQO1 activity assay Cytochrome C reduced/min/μg NQO1 protein", "setting": "50 nM Compound (Table 2)", "value": "1567 nmol cytochrome C that was reduced/min/ug NQO1 protein"}]}, {"smiles": "O=C1C(=O)c2c(CBr)nn(-c3ccccc3)c2-c2ccccc21", "note": "[Compound 16, 3-(Bromomethyl)-1-phenyl-1H-benzo[g]indazol-4,5-dione]", "values": [{"measurement": "NQO1 activity assay Cytochrome C reduced/min/μg NQO1 protein", "setting": "10 nM Compound (Table 1)", "value": "596 nmol cytochrome C that was reduced/min/ug NQO1 protein"}]}, {"smiles": "O=C1C(=O)c2cnn(-c3ccccc3)c2-c2ccccc21", "note": "[Compound 33, 1-Phenyl-1H-benzo[g]indazol-4,5-dione]", "values": [{"measurement": "NQO1 activity assay Cytochrome C reduced/min/μg NQO1 protein", "setting": "10 nM Compound (Table 1)", "value": "436 nmol cytochrome C that was reduced/min/ug NQO1 protein"}]}, {"smiles": "Cc1ccc(CCn2nc(C)c3c2-c2ccccc2C(=O)C3=O)cc1", "note": "[Compound 68, 3-Methyl-1-(4-methylphenethyl)-1H-benzo[g]indazol-4,5-dione]", "values": [{"measurement": "NQO1 activity assay Cytochrome C reduced/min/μg NQO1 protein", "setting": "50 nM Compound (Table 8)", "value": "1865 nmol cytochrome C that was reduced/min/ug NQO1 protein"}]}, {"smiles": "O=C1C(=O)c2c(C(F)(F)F)nn(-c3ccccc3)c2-c2ccccc21", "note": "[Compound 34, 1-Phenyl-3-(trifluoromethyl)-1H-benzo[g]indazol-4,5-dione]", "values": [{"measurement": "NQO1 activity assay Cytochrome C reduced/min/μg NQO1 protein", "setting": "10 nM Compound (Table 1)", "value": "716 nmol cytochrome C that was reduced/min/ug NQO1 protein"}]}, {"smiles": "CCOC(=O)c1nc2n(c1-c1ccccc1)-c1ccccc1C(=O)C2=O", "note": "[Compound 6, Ethyl 4,5-dioxo-1-phenyl-4,5-dihydroimidazo[1,2-a]quinolin-2-carboxylate]", "values": [{"measurement": "NQO1 activity assay Cytochrome C reduced/min/μg NQO1 protein", "setting": "10 nM Compound (Table 1)", "value": "916 nmol cytochrome C that was reduced/min/ug NQO1 protein"}]}, {"smiles": "Cc1c2c(nn1S(=O)(=O)c1cccc(Cl)c1)-c1ccccc1C(=O)C2=O", "note": "[Compound 47, 2-(3-Chlorophenylsulfonyl)-3-methyl-2H-benzo[g]indazol-4,5-dione]", "values": [{"measurement": "NQO1 activity assay Cytochrome C reduced/min/μg NQO1 protein", "setting": "50 nM Compound (Table 5)", "value": "1277 nmol cytochrome C that was reduced/min/ug NQO1 protein"}]}, {"smiles": "Cc1nn(-c2cncc(Cl)c2)c2c1C(=O)C(=O)c1ccccc1-2", "note": "[Compound 39, 1-(5-Chloropyridin-3-yl)-3-methyl-1H-benzo[g]indazol-4,5-dione]", "values": [{"measurement": "NQO1 activity assay Cytochrome C reduced/min/μg NQO1 protein", "setting": "50 nM Compound (Table 4)", "value": "3285 nmol cytochrome C that was reduced/min/ug NQO1 protein"}]}, {"smiles": "Cc1c2c(nn1S(=O)(=O)c1ccccc1)-c1ccccc1C(=O)C2=O", "note": "[Compound 44, 3-Methyl-2-(phenylsulfonyl)-2H-benzo[g]indazol-4,5-dione]", "values": [{"measurement": "NQO1 activity assay Cytochrome C reduced/min/μg NQO1 protein", "setting": "50 nM Compound (Table 3)", "value": "2169 nmol cytochrome C that was reduced/min/ug NQO1 protein"}]}, {"smiles": "Cc1c2c(nn1S(=O)(=O)c1ccccc1Cl)-c1ccccc1C(=O)C2=O", "note": "[Compound 46, 2-(2-Chlorophenylsulfonyl)-3-methyl-2H-benzo[g]indazol-4,5-dione]", "values": [{"measurement": "NQO1 activity assay Cytochrome C reduced/min/μg NQO1 protein", "setting": "50 nM Compound (Table 5)", "value": "1522 nmol cytochrome C that was reduced/min/ug NQO1 protein"}]}, {"smiles": "Cc1c2c(nn1S(=O)(=O)c1ccc(F)cc1F)-c1ccccc1C(=O)C2=O", "note": "[Compound 59, 2-(2,4-Difluorophenylsulfonyl)-3-methyl-2H-benzo[g]indazol-4,5-dione]", "values": [{"measurement": "NQO1 activity assay Cytochrome C reduced/min/μg NQO1 protein", "setting": "50 nM Compound (Table 8)", "value": "1923 nmol cytochrome C that was reduced/min/ug NQO1 protein"}]}]}
